Like-named read-outs stand apart in the source and are kept apart here.

This assay deals with HCV pseudoparticles (genotype 1a HCV E1 and E2 envelope, H77C isolate). Description: microbe, parasite or virus in culture. The format is cell-based. The settings on record: Hepatitis C virus.
Setting [1] is: Huh-7, 48 h, read-out: Activity (EC50 class), HCV pseudoparticle infection of Huh7 cells, luciferase 2 days after infection, EC50 expressed as class A/B.
The mark [2] stands for this setting: Huh-7, 48 h, HCV pseudoparticles (genotype 1a, H77C) in Huh7 cells, average of duplicate, luciferase 2 days after infection.
[3] abbreviates: Huh-7, read-out: Activity (EC50 class), HCV pseudoparticles (genotype 1a, H77C) in Huh7 cells, EC50 expressed as class A/B.
The mark [4] stands for this setting: Huh-7, 48 h, read-out: Activity (EC50 class), HCV pseudoparticles, Huh7 cells, luciferase 2 days after infection, average of duplicates.
The mark [5] stands for this setting: Huh-7, 48 h, HCV pseudoparticles, Huh7 cells, luciferase 2 days after infection, average of duplicates.

Regarding `COC(=O)[C@H](CCNC(=O)C(=O)Nc1ccc(F)cc1)NC(=O)c1ccc(Nc2nc(NC3(c4ccc(Cl)cc4)CC3)nc(OCC(F)(F)F)n2)cc1` [Compound 1230], the EC50 under setting [1] was 0.01 to 10 nM.

Consider `CC(C)(CNC(=O)C(=O)Nc1ccc(OC(F)F)cc1)CNC(=O)c1ccc(Nc2nc(NC3(c4ccc(Cl)cc4)CC3)nc(OCC(F)(F)F)n2)cc1F` [Compound 3562], for which the EC50 is, setting by setting: under setting [2], 0.018 nM; under setting [3], 0.01 to 10 nM.

For the compound `CC(C)(CNC(=O)C(=O)Nc1ccc(-c2cscn2)cc1)CNC(=O)c1ccc(Nc2nc(NC3(c4ccc(Cl)cc4)CC3)nc(OCC(F)(F)F)n2)cc1` [Compound 1595], the EC50 under setting [1] was 0.01 to 10 nM.

As for `Cc1cc(F)ccc1NC(=O)C(=O)NCC(C)(C)CNC(=O)c1ccc(Nc2nc(NC3(c4ccc(Cl)cc4)CC3)nc(OCC(F)(F)F)n2)cc1` [Compound 3061], the EC50 under setting [3] is 0.01 to 10 nM.

For the compound `CC(C)(CNC(=O)c1ccc(Nc2nc(NC3(c4ccc(Cl)cc4)CC3)nc(OCC(F)(F)F)n2)cc1)NC(=O)C(=O)Nc1ccc(F)cc1F` [Compound 3438], the EC50 under setting [3] was 0.01 to 10 nM.

`COC(=O)[C@H](CNC(=O)C(=O)Nc1cccc(-c2c[nH]cn2)c1)NC(=O)c1ccc(Nc2nc(NC3(c4ccc(Cl)cc4)CC3)nc(OCC(F)(F)F)n2)cc1` [Compound 3732]: the EC50 under setting [4] was 0.01 to 10 nM.

`COC(=O)/C(CCNC(=O)C(=O)Nc1ccc(C(F)(F)F)nc1)=N\C(=O)c1ccc(Nc2nc(NC3(c4ccc(Cl)cc4)CC3)nc(OCC(F)(F)F)n2)cc1` [Compound 3594]: the EC50 under setting [3] fell in the range of 0.01 to 10 nM.

Regarding `CC(C)(CNC(=O)C(=O)Nc1cccc(C(=N)N)c1)CNC(=O)c1ccc(Nc2nc(NC3(c4ccc(Cl)cc4)CC3)nc(OCC(F)(F)F)n2)cc1` [Compound 3041], it took 0.068 nM to reach a half-maximal effect under setting [2] (EC50) and the EC50 under setting [3] fell in the range of 0.01 to 10 nM.

Consider `CCOC(=O)[C@H](CNC(=O)C(N)=O)NC(=O)c1ccc(Nc2nc(NC3(c4ccc(Cl)cc4)CC3)nc(OCC(F)(F)F)n2)cc1` [Compound 1025, (S)-ethyl 3-(2-amino-2-oxoacetamido)-2-(4-(4-(1-(4-chlorophenyl)cyclopropylamino)-6-(2,2,2-trifluoroethoxy)-1,3,5-triazin-2-ylamino)benzamido)propanoate], for which the EC50 was 1.73 nM (Huh-7, 48 h, HCV pseudoparticle infection of Huh7 cells, luciferase 2 days after infection, average of duplicates) and 0.01 to 10 nM under setting [1].

On to `COC(=O)[C@H](CCNC(=O)C(=O)Nc1ccncc1)NC(=O)c1ccc(Nc2nc(NC3(c4ccc(Cl)cc4)CC3)nc(OCC(F)(F)F)n2)cc1` [Compound 1236], for which the EC50 under setting [1] was 0.01 to 10 nM.

For `CC(C)(CNC(=O)C(=O)Nc1nc2cccnc2s1)CNC(=O)c1ccc(Nc2nc(NC3(c4ccc(Cl)cc4)CC3)nc(OCC(F)(F)F)n2)cc1` [Compound 3811], under setting [4], the EC50 lay in the range of 0.01 to 10 nM.

For `CN(C)CCOc1ccc(NC(=O)C(=O)NCC[C@H](NC(=O)c2ccc(Nc3nc(NC4(c5ccc(Cl)cc5)CC4)nc(OCC(F)(F)F)n3)cc2)C(=O)O)cn1` [Compound 3660], the EC50 runs as follows: under setting [5], 1.67 nM; under setting [4], 0.01 to 10 nM.

As for `COC(=O)[C@H](CNC(=O)C(=O)Nc1ccc(S(C)(=O)=O)cc1)NC(=O)c1ccc(Nc2nc(NC3(c4ccc(Cl)cc4)CC3)nc(OCC(F)(F)F)n2)cc1` [Compound 3105], the EC50 under setting [3] fell in the range of 0.01 to 10 nM.

Take `CC(C)(CNC(=O)C(=O)Nc1ccc(-c2ccc(-c3ccccc3)cc2)cc1)CNC(=O)c1ccc(Nc2nc(NC3(c4ccc(Cl)cc4)CC3)nc(OCC(F)(F)F)n2)cc1` [Compound 1564]: the EC50 under setting [1] fell in the range of 0.01 to 10 nM.

`COC(=O)[C@H](CNC(=O)C(=O)Nc1ccc(OCCN2C(=O)c3ccccc3C2=O)nc1)NC(=O)c1ccc(Nc2nc(NC3(c4ccc(Cl)cc4)CC3)nc(OCC(F)(F)F)n2)cc1` [Compound 3682]: it took 0.31 nM to reach a half-maximal effect under setting [5] (EC50) and the EC50 under setting [4] fell in the range of 0.01 to 10 nM.

As for `COC(=O)[C@H](CNC(=O)C(=O)Nc1cccc(-c2nnnn2C)c1)NC(=O)c1ccc(Nc2nc(NC3(c4ccc(Cl)cc4)CC3)nc(OCC(F)(F)F)n2)cc1` [Compound 3731], the EC50 under setting [4] fell in the range of 0.01 to 10 nM.

`COc1cccc(-c2ccc(NC(=O)C(=O)NCC(C)(C)CNC(=O)c3ccc(Nc4nc(NC5(c6ccc(Cl)cc6)CC5)nc(OCC(F)(F)F)n4)cc3F)cc2)c1` [Compound 3563]: the EC50 under setting [3] lay in the range of 0.01 to 10 nM.

`COC(=O)[C@H](CCNC(=O)C(=O)Nc1ccc(O)cc1)NC(=O)c1ccc(Nc2nc(NC3(c4ccc(Cl)cc4)CC3)nc(OCC(F)(F)F)n2)cc1` [Compound 1526]: the EC50 under setting [1] was in the range of 0.01 to 10 nM.

As to `CCOC(=O)/C=C/c1ccc(NC(=O)C(=O)NCC(C)(C)CNC(=O)c2ccc(Nc3nc(NC4(c5ccc(Cl)cc5)CC4)nc(OCC(F)(F)F)n3)cc2)cc1` [Compound 3144], the EC50 under setting [3] was 0.01 to 10 nM.

As to `O=C(NC[C@H](NC(=O)c1ccc(Nc2nc(NC3(c4ccc(Cl)cc4)CC3)nc(OCC(F)(F)F)n2)cc1)C(=O)O)C(=O)Nc1ccc(OC2CCOCC2)cc1` [Compound 3291], under setting [3], the EC50 lay within 0.01 to 10 nM.

With `COC(=O)[C@H](CCNC(=O)C(=O)N[C@H]1C[C@H]2C3C2[C@]31C)NC(=O)c1ccc(Nc2nc(NC3(c4ccc(Cl)cc4)CC3)nc(OCC(F)(F)F)n2)cc1` (some centres unmarked) [Compound 1100], the EC50 under setting [1] was 0.01 to 10 nM.

With `CNS(=O)(=O)c1cccc(NC(=O)C(=O)NC[C@H](NC(=O)c2ccc(Nc3nc(NC4(c5ccc(Cl)cc5)CC4)nc(OCC(F)(F)F)n3)cc2)C(=O)OC)c1` [Compound 3727], under setting [4], the EC50 was in the range of 0.01 to 10 nM.

As to `COC(=O)[C@H](CNC(=O)C(=O)Nc1ccc(N2CCOCC2)nc1)NC(=O)c1ccc(Nc2nc(NC3(c4ccc(Cl)cc4)CC3)nc(OCC(F)(F)F)n2)cc1` [Compound 3703], the EC50 under setting [5] came out at 1.33 nM and the EC50 under setting [4] lay within 0.01 to 10 nM.

Turning to `Cc1ccc(NC(=O)C(=O)NCC(C)(C)CNC(=O)c2ccc(Nc3nc(NC4(c5ccc(Cl)cc5)CC4)nc(OCc4cccc(Cl)c4)n3)cc2)cc1` [Compound 3844], the EC50 under setting [4] fell in the range of 0.01 to 10 nM.

Regarding `CC(C)(CNC(=O)C(=O)Nc1cccc(-c2nn[nH]n2)c1)CNC(=O)c1ccc(Nc2nc(NC3(c4ccc(Cl)cc4)CC3)nc(OCC(F)(F)F)n2)cc1` [Compound 1489], the 50% effective concentration (EC50) under setting [1] was in the range of 0.01 to 10 nM.

For the compound `O=C(NCC[C@H](NC(=O)c1ccc(Nc2nc(NC3(c4ccc(Cl)cc4)CC3)nc(OCC(F)(F)F)n2)cc1)C(=O)O)C(=O)Nc1cccc(Cl)c1` [Compound 1500], under setting [1], the EC50 was in the range of 0.01 to 10 nM.

In the case of `COC(=O)[C@@H](CCNC(=O)C(=O)NCC1(CN2CCOCC2)CC1)NC(=O)c1ccc(Nc2nc(NC3(c4ccc(Cl)cc4)CC3)nc(OCC(F)(F)F)n2)cc1` [Compound 1382], under setting [1], the EC50 lay in the range of 0.01 to 10 nM.

Consider `COC(=O)[C@H](CCNC(=O)C(=O)NNc1ccccc1)NC(=O)c1ccc(Nc2nc(NC3(c4ccc(Cl)cc4)CC3)nc(OCC(F)(F)F)n2)cc1` [Compound 1220], for which, under setting [1], the EC50 is 0.01 to 10 nM.

On to `COc1cc2sc(NC(=O)C(=O)NCC(C)(C)CNC(=O)c3ccc(Nc4nc(NC5(c6ccc(Cl)cc6)CC5)nc(OCC(F)(F)F)n4)cc3)nc2cc1Cl` [Compound 3802], for which the EC50 under setting [4] lay within 0.01 to 10 nM.

On to `CC(C)(CNC(=O)C(=O)Nc1nc2ccc(Cl)cc2s1)CNC(=O)c1ccc(Nc2nc(NC3(c4ccc(Cl)cc4)CC3)nc(OCC(F)(F)F)n2)cc1` [Compound 3807], for which the EC50 is, setting by setting: under setting [5], 0.28 nM; under setting [4], 0.01 to 10 nM.

Consider `CC(C)(CNC(=O)C(=O)NCc1cccc(Cl)c1)CNC(=O)c1ccc(Nc2nc(NC3(c4ccc(Cl)cc4)CC3)nc(OCC(F)(F)F)n2)cc1` [Compound 3020], for which the EC50 under setting [3] was in the range of 0.01 to 10 nM.

For the compound `O=C(NCC[C@H](NC(=O)c1ccc(Nc2nc(NC3(c4ccc(Cl)cc4)CC3)nc(OCC(F)(F)F)n2)cc1)C(=O)O)C(=O)Nc1cccc(-n2ccnc2)c1` [Compound 3659], the 50% effective concentration (EC50) under setting [4] was in the range of 0.01 to 10 nM.

For the compound `CC(C)(CNC(=O)C(=O)Nc1ccc(-c2csnn2)cc1)CNC(=O)c1ccc(Nc2nc(NC3(c4ccc(Cl)cc4)CC3)nc(OCC(F)(F)F)n2)cc1` [Compound 1598], the EC50 under setting [1] was 0.01 to 10 nM.

`Cc1cc(NC(=O)C(=O)NCCCCNC(=O)c2ccc(Nc3nc(NC4(c5ccc(Cl)cc5)CC4)nc(OCC(F)(F)F)n3)cc2)no1` [Compound 3394]: under setting [3], the EC50 lay within 0.01 to 10 nM.

For the compound `O=C(NCCCCNC(=O)c1ccc(Nc2nc(NC3(c4ccc(Cl)cc4)CC3)nc(OCC(F)(F)F)n2)cc1)C(=O)Nc1ccccc1` [Compound 3403], the EC50 under setting [3] is 0.01 to 10 nM.

In the case of `Cc1ccc(NC(=O)C(=O)NCC(C)(C)CNC(=O)c2ccc(Nc3nc(NC4(c5ccc(Cl)cc5)CC4)nc(OCc4ccc(C(C)(C)C)cc4)n3)cc2)cc1` [Compound 3841], under setting [4], the EC50 fell in the range of 0.01 to 10 nM.

For the compound `O=C(NCCc1ccccc1F)C(=O)NC[C@H](NC(=O)c1ccc(Nc2nc(NC3(c4ccc(Cl)cc4)CC3)nc(OCC(F)(F)F)n2)cc1)C(=O)O` [Compound 1402], under setting [1], the concentration giving a half-maximal response (EC50) was 0.01 to 10 nM.

Regarding `CNC(=O)CCc1ccc(NC(=O)C(=O)NCC(C)(C)CNC(=O)c2ccc(Nc3nc(NC4(c5ccc(Cl)cc5)CC4)nc(OCC(F)(F)F)n3)cc2)cc1` [Compound 3025], under setting [3], the EC50 is 0.01 to 10 nM.

Take `COC(=O)[C@H](CCNC(=O)C(=O)NCC1CCCCCC1)NC(=O)c1ccc(Nc2nc(NC3(c4ccc(Cl)cc4)CC3)nc(OCC(F)(F)F)n2)cc1` [Compound 1197]: the EC50 under setting [1] fell in the range of 0.01 to 10 nM.

`CC(C)(CNC(=O)C(=O)Nc1ccc(F)c(F)c1)CNC(=O)c1ccc(Nc2nc(NC3(c4ccc(Cl)cc4)CC3)nc(OCC(F)(F)F)n2)cc1` [Compound 1556]: the EC50 under setting [1] was 0.01 to 10 nM.

`COC(=O)[C@H](CCNC(=O)C(=O)Nc1cc(F)cc(F)c1)NC(=O)c1ccc(Nc2nc(NC3(c4ccc(Cl)cc4)CC3)nc(OCC(F)(F)F)n2)cc1` [Compound 1506]: the EC50 under setting [1] lay within 0.01 to 10 nM.

Turning to `CC(C)(C)c1ccc(Oc2ccc(NC(=O)C(=O)NC[C@H](NC(=O)c3ccc(Nc4nc(NC5(c6ccc(Cl)cc6)CC5)nc(OCC(F)(F)F)n4)cc3)C(=O)O)cn2)cc1` [Compound 3754], the EC50 under setting [4] was in the range of 0.01 to 10 nM.

As for `Cc1ccc(NC(=O)C(=O)N(CCO)CCCNC(=O)c2ccc(Nc3nc(NC4(c5ccc(Cl)cc5)CC4)nc(OCC(F)(F)F)n3)cc2)cc1` [Compound 3501], under setting [3], the EC50 fell in the range of 0.01 to 10 nM.

For the origin of these results see patent US8916702B2 (priority 2012, dated 2014).
